# Test results published in patent US20120028252A1, “HUMAN MENA ISOFORMS SERVE AS MARKERS OF EPITHELIAL TO MESENCHYMAL TRANSITION AND SENSITIVITY TO EGFR INHIBITION IN HUMAN CANCER CELLS” (priority 2008, published 2012).
# Experiments:
# [1] = system: hMena and hMena^+11a in breast cancer cell lines; settings: cited from earlier work
# [2] = system: hMena and hMena^+11a protein in Panc1 cells; test: Western blot of hMena expression after EGF and erlotinib treatment, Panc1; type: cell-based, human; settings: EGF 50 and 100 ng/ml, 24 hours
# Protocol: (§1) Cell treatments. Cells were grown in six-well plates to confluence in RPMI supplemented with 10% fetal bovine serum. After 18 hours in serum-free medium, the cells were treated with different amounts of rhEGF (Promega) for 24 hours. Erlotinib (10 μmol/L) was added 2 hours before EGF treatment. Western blot analyses. Cells were lysed as reported (32). Lysates (30 or 100 μg) were resolved on 10% polyacrylamide gel and transferred to nitrocellulose membranes (GE Healthcare, Piscataway, N.J.). Membranes were blocked in 5% non-fat milk in Tris-buffered saline (TBS) containing 0.1% Tween 20 (TBS-T) for 1 hour at room temperature, incubated overnight with relevant antibodies, washed, and probed with species-specific secondary antibodies coupled to horseradish peroxidase, and detected by enhanced chemiluminescence (Amersham Biosciences).
# [3] = system: hMena and hMena^+11a protein in BxPC3 cells; test: Western blot of hMena expression after EGF and erlotinib treatment, BxPC3; type: cell-based, human
# Protocol: as §1
# [4] = system: Hs766T pancreatic cancer cell line; test: Proliferation assay (cellular ATP, Vialight); type: cell-based, human; settings: erlotinib 10 μmol/L
# Protocol: (§5) The effects of increasing concentrations of erlotinib (0.1 to 10 μmol/L) on cell proliferation were assessed by measuring the intracellular ATP content using the Vialight assay. Results are expressed as percentage inhibition of ATP incorporation relative to untreated cells. […] Proliferation assays. Cell proliferation was determined by measurement of cellular ATP levels with a high sensitivity cell proliferation/cytotoxicity kit (Vialight Plus, Cambrex Bio Sci Rockland Inc., Rockland, Me.). Briefly, cells were plated in 96-well plates at a density of 1×10^4 per well and exposed 24 hours later to various concentrations of erlotinib (0.1-10 μmol/L) in serum-free media. After 24 hours nucleotide (ATP) releasing reagent (100 μl) was added to each well and the plate was incubated for 10 min at room temperature. Cell lysate (180 μl) was transferred to a luminescence compatible plate. The 96-well plates were read using a Perkin Elmer LS 50B luminometer. ATP levels in cells were normalized to levels in untreated control cultures.
# BxPC3 cells = test: Proliferation assay after hMena siRNA knock-down, BxPC3; type: cell-based, human
# Protocol: (§2) Silencing of hMena reduces the baseline growth rate in BxPC3 compared with the growth rate of untransfected cells and cells transfected with non specific siRNA (45% vs 100%, P<0.01). […] Proliferation assays were conducted 72 h after the siRNA transfection.
# (§3) Proliferation assays. Cell proliferation was determined by measurement of cellular ATP levels with a high sensitivity cell proliferation/cytotoxicity kit (Vialight Plus, Cambrex Bio Sci Rockland Inc., Rockland, Me.). Briefly, cells were plated in 96-well plates at a density of 1×10^4 per well and exposed 24 hours later to various concentrations of erlotinib (0.1-10 μmol/L) in serum-free media. After 24 hours nucleotide (ATP) releasing reagent (100 μl) was added to each well and the plate was incubated for 10 min at room temperature. Cell lysate (180 μl) was transferred to a luminescence compatible plate. The 96-well plates were read using a Perkin Elmer LS 50B luminometer. ATP levels in cells were normalized to levels in untreated control cultures.
# (§4) Small interfering RNA treatment. Cells in exponential growth phase were transfected with 100 nmol/L hMena-specific pooled small interfering RNA (siRNA) duplexes (siENA SMART pool) or control non-specific siRNA (Dharmacon, Lafayette, Colo.) using LipofectAMINE 2000 reagent (Invitrogen, Paisley, United Kingdom). […]
# [5] = system: T3M4 pancreatic cancer cell line; test: Proliferation assay (cellular ATP, Vialight); type: cell-based; settings: Homo sapiens, erlotinib 1 μmol/L, 24 hours, serum-free media
# Protocol: (§6) The effects of increasing concentrations of erlotinib (0.1 to 10 μmol/L) on cell proliferation were assessed by measuring the intracellular ATP content using the Vialight assay. Results are expressed as percentage inhibition of ATP incorporation relative to untreated cells. […] Cell proliferation was determined by measurement of cellular ATP levels with a high sensitivity cell proliferation/cytotoxicity kit (Vialight Plus, Cambrex Bio Sci Rockland Inc., Rockland, Me.). Briefly, cells were plated in 96-well plates at a density of 1×10^4 per well and exposed 24 hours later to various concentrations of erlotinib (0.1-10 μmol/L) in serum-free media. After 24 hours nucleotide (ATP) releasing reagent (100 μl) was added to each well and the plate was incubated for 10 min at room temperature. Cell lysate (180 μl) was transferred to a luminescence compatible plate. The 96-well plates were read using a Perkin Elmer LS 50B luminometer. ATP levels in cells were normalized to levels in untreated control cultures.
# [6] = system: PT45 pancreatic cancer cell line; test: Proliferation assay (cellular ATP, Vialight); type: cell-based, human; settings: erlotinib 10 μmol/L
# Protocol: as §6
# Panc1 cells = test: Proliferation assay after hMena siRNA knock-down, Panc1; type: cell-based, human; settings: hMena siRNA construct (48 h) plus erlotinib (100 nM, 24 h)
# Protocol: as §2, §3, §4
# [7] = system: MiaPaCa-2 pancreatic cancer cell line; test: Proliferation assay (cellular ATP, Vialight); type: cell-based, human; settings: erlotinib 10 μmol/L
# Protocol: as §5
# [8] = system: L3.6 μl human pancreatic cancer cell line; test: Proliferation assay (cellular ATP, Vialight); type: cell-based; settings: erlotinib 1 μmol/L, 24 hours, serum-free media
# Protocol: as §6
# [9] = system: PACA44 pancreatic cancer cell line; test: Proliferation assay (cellular ATP, Vialight); type: cell-based; settings: Homo sapiens, PaCa-44; erlotinib 1 μmol/L, 24 hours, serum-free media
# Protocol: as §6
# [10] = system: Panc1 pancreatic cancer cell line; test: Proliferation assay (cellular ATP, Vialight); type: cell-based, human; settings: erlotinib 10 μmol/L
# Protocol: as §5
# [11] = system: BxPC3 pancreatic cancer cell line; test: Proliferation assay (cellular ATP, Vialight); type: cell-based; settings: Homo sapiens, BXPC-3; erlotinib 1 μmol/L, 24 hours, serum-free media
# Protocol: as §6
molecule,measurement,setting,value
"EGF: Recombinant human EGF purchased from Promega (NSDSECPLSHDGYCLHDGVCMYIEALDKYACNCVVGYIGERCQYRDLKWWELR; UniProt P01133 971-1023, looked up)",hMena and hMena^+11a expression,[1]; EGF treatment of breast cancer cell lines,up-regulation
same,hMena^+11a expression and phosphorylation,"[1]; HER2 activation by EGF and NRG1 treatment, breast cancer cell lines",up-regulation and phosphorylation
same,hMena and hMena^+11a protein level,[2],clearly increased
same,hMena and hMena^+11a protein level,"[3]; EGF 50 and 100 ng/ml, 24 hours, BxPC3",clearly increased
COc1cc2ncnc(Nc3cccc(Cl)c3)c2cc1OC [AG1478],EGF-promoted up-regulation of hMena and hMena^+11a and increase of phosphorylated hMena^+11a,[1]; pre-treatment of breast cancer cell lines before EGF,inhibited
C#Cc1cccc(Nc2ncnc3cc(OCCOC)c(OCCOC)cc23)c1 [erlotinib],growth rate,[4],not significantly affected
same,"proliferation, combined exposure","BxPC3 cells; hMena siRNA construct (48 h) plus erlotinib (100 nM, 24 h), BxPC3",additive decrease
same,cell proliferation,BxPC3 cells; hMena-silenced BxPC3 cells treated with erlotinib 0.1 μM/L for 24 h,dramatic decrease
same,inhibition at 1 µM,[5],≥ 50%
same,growth rate,[6],not significantly affected
same,"proliferation, combined exposure",Panc1 cells,did not
same,growth rate,[7],not significantly affected
same,hMena expression,"[3]; erlotinib (10 μmol/L, 2 hours before EGF) added to EGF-treated BxPC3 cells",down regulated
same,inhibition at 1 µM,[8],≥ 50%
same,inhibition at 1 µM,[9],≥ 50%
same,growth rate,[10],not significantly affected
same,inhibition at 1 µM,[11],≥ 50%
